Patent US20070244155A1 (AMGEN INC., priority 2006, published 2007)

The compounds below were run against T1, human GPR40 (Homo sapiens, UniProt O14842) (assay: Cell-based aequorin assay using human GPR40). Settings: CHO cells transfected with GPR40 and aequorin expression vectors; aequorin luminescence; activation of human GPR40; read-out: Relative EC50.
T1 construct: expressed in transfected cells; host or cells: CHO cells
T1 sequence (O14842 whole entry): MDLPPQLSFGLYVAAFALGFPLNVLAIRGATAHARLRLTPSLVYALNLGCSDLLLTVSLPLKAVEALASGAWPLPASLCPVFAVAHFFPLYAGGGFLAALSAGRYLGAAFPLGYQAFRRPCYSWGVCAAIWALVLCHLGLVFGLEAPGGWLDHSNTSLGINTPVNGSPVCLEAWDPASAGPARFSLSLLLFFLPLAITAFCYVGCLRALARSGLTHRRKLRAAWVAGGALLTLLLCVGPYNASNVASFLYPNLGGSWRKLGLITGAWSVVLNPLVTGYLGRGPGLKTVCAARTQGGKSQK
Procedure: A cell-based aequorin assay may be employed to characterize the modulatory activity of compounds on the GPR40 signaling pathway. In an exemplary assay, CHO cells are transfected in a 15 cm plated containing 14 million cells with 5 μg of GPR40 expression vector and 5 μg of Aequorin expression vector (Euroscreen) using Lipofectamine 2000 (Invitrogen). After 17-24 hours post-transfection, cells are washed with phosphate buffered saline (PBS) and detached from the tissue culture dish with 2 mL of trypsin (0.25%(w/v)). Trypsinization is halted with 28 mL of Hanks Buffered Salt Solution containing 20 mM Hepes (H/HBSS) and 0.01% fatty acid-free bovine serum albumin (BSA) or 0.625% fatty acid-free human serum albumin (HSA). Coelantrazine is added to 1 ug/mL and the cells are incubated for 2 hours at room temperature. Cells are gently mixed every 15 minutes. Compounds are dissolved in dimethyl sulfoxide for preparation of 10 mM stock solutions. Compounds are diluted in H/HBSS containing either 0.01% BSA or 0.625% HSA. Serial dilutions of the test compounds are prepared to determine dose response. Aequorin luminescence measurements are made using an EG&G Berthold 96-well luminometer and the response is measured over a 20 second interval after cells and compounds are mixed. The area-under-curve from 2-20 seconds is plotted to determine dose response. The EC50 (effective concentration to reach 50% maximal response) is determined from the dose response plot. Table 1 includes representative data (EC50 values) obtained for exemplary compounds of the invention for the relative activation of human GPR40. […] Therefore, in some embodiments, the invention provides any of the compounds listed in Table 1 individually or as members of a group and pharmaceutically acceptable salts, esters, solvates, tautomers, stereoisomers, and/or prodrugs thereof.
Cc1ccc(-c2nc(C)c(COc3ccc4c(c3)C(CC(=O)O)CCC4)s2)cc1 (stereo not drawn) [Example 17] was tested, and the EC50 was 1000 to 10000 nM.
CCCCOc1ccc(C)cc1-c1ccc(COc2ccc3c(c2)C(CC(=O)O)CCC3)cc1 (stereo not drawn) [Example 18] gave an EC50 of 1000 to 10000 nM.
CCOc1ccccc1-c1ccc(COc2ccc3c(c2)C(CC(=O)O)CCC3)cc1 (stereo not drawn) [Example 19] showed an EC50 of 1000 to 10000 nM.
In the case of O=C(O)CC1CCc2ccc(OCc3cccc(-c4ccc(C(F)(F)F)cc4)c3)cc2C1 (stereo not drawn) [Example 20], the EC50 is reported as 1000 to 10000 nM.
CCCCOc1ccc(C)cc1-c1ccc(COc2ccc3c(c2)CC(CC(=O)O)CC3)cc1 (stereo not drawn) [Example 21] was tested, and the EC50 was 1000 to 10000 nM.
With O=C(O)C1CCc2cc(OCCOc3cccc(C(F)(F)F)c3)ccc2C1 (stereo not drawn) [Example 30] the EC50 was 1000 to 10000 nM.
O=C(O)C1CCc2cc(OCc3cccc(-c4ccc(C(F)(F)F)cc4)c3)ccc2C1 (stereo not drawn) [Example 31] showed an EC50 of 1000 to 10000 nM.
O=C(O)C(F)(F)C1CCCc2cc(OCc3cccc(-c4ccc(C(F)(F)F)cc4)c3)ccc21 (stereo not drawn) [Example 32, Difluoro-[6-(4′-trifluoromethyl-biphenyl-3-ylmethoxy)-1,2,3,4-tetrahydro-naphthalen-1-yl]-acetic acid] showed an EC50 of 1000 to 10000 nM.
Cc1ccc(-c2nc(C)c(COc3ccc4c(c3)CCCC4C(F)(F)C(=O)O)s2)cc1 (stereo not drawn) [Example 33] gave an EC50 of 1000 to 10000 nM.
C=C1COc2cc(OCc3sc(-c4ccc(C)cc4)nc3C)ccc2C1CC(=O)O (stereo not drawn) [Example 34, 2-(7-((4-methyl-2-p-tolylthiazol-5-yl)methoxy)-3-methylene-3,4-dihydro-2H-chromen-4-yl)acetic acid] was tested, and the EC50 was < 100 nM.
In the case of C=C1COc2cc(OCc3ccc(-c4cc(C)ccc4OCCCC)cc3)ccc2[C@H]1CC(=O)O [Example 36, [(S)-7-(2′-Butoxy-5′-methyl-biphenyl-4-ylmethoxy)-3-methylene-chroman-4-yl]-acetic acid], the EC50 is reported as < 100 nM.
In the case of C=C1COc2cc(OCc3ccc(-c4cc(C)ccc4OCCCC)cc3)ccc2[C@@H]1CC(=O)O [Example 37, [(R)-7-(2′-Butoxy-5′-methyl-biphenyl-4-ylmethoxy)-3-methylene-chroman-4-yl]-acetic acid], the EC50 is reported as 100 to 1000 nM.
For C=C1CCc2cc(OCc3cccc(-c4ccc(C(F)(F)F)cc4)c3)ccc2C1CC(=O)O (stereo not drawn) [Example 38, 2-(6-(3-(4-Trifluoromethylphenyl)benzyloxy)-2-methylene-1,2,3,4-tetrahydronaphthalen-1-yl)acetic acid], the EC50 was 100 to 1000 nM.
For C/C=C1/COc2cc(OCc3ccc(-c4cc(C)ccc4OCCCC)cc3)ccc2C1CC(=O)O (stereo not drawn) [Example 41], the EC50 was 100 to 1000 nM.
O=C(O)CC1COCc2cc(OCc3cccc(-c4ccc(C(F)(F)F)cc4)c3)ccc21 (stereo not drawn) [Example 42, 2-(7-(3-(4-Trifluoromethylphenyl)benzyloxy)-3,4-dihydro-1H-isochromen-4-yl)acetic acid] was tested, and the EC50 was 100 to 1000 nM.
For Cc1ccccc1/C=C/c1ccc2c(c1)CCCC2CC(=O)O (stereo not drawn) [Example 46, [6-((E)-2-o-Tolyl-vinyl)-1,2,3,4-tetrahydro-naphthalen-1-yl]-acetic acid], the EC50 was 1000 to 10000 nM.
COc1ccc(/C=C/c2ccc3c(c2)CCCC3CC(=O)O)cc1 (stereo not drawn) [Example 47, {6-[(E)-2-(4-Methoxy-phenyl)-vinyl]-1,2,3,4-tetrahydro-naphthalen-1-yl}-acetic acid] showed an EC50 of 1000 to 10000 nM.
Compound O=C(O)CC1CCCc2cc(CCc3ccc(C(F)(F)F)cc3)ccc21 (stereo not drawn) [Example 48, {6-[2-(4-Trifluoromethyl-phenyl)-ethyl]-1,2,3,4-terahydro-naphthalen-1-yl}-acetic acid] has an EC50 of 1000 to 10000 nM.
In the case of O=C(O)CC1CCCc2cc(CCc3ccc(-c4ccccc4)cc3)ccc21 (stereo not drawn) [Example 49, [6-(2-Biphenyl-4-yl-ethyl)-1,2,3,4-tetrahydro-naphthalen-1-yl]-acetic acid], the EC50 is reported as 1000 to 10000 nM.
Compound COc1ccc(COc2ccc3c(c2)CCC(=O)N3CCC(=O)O)cc1 [Example 50, 3-[6-(4-Methoxy-benzyloxy)-2-oxo-3,4-dihydro-2H-quinolin-1-yl]-propionic acid] has an EC50 of 1000 to 10000 nM.
O=C(O)CCn1ccc2cc(OCc3cccc(-c4ccc(C(F)(F)F)cc4)c3)ccc21 [Example 51] was tested, and the EC50 was 1000 to 10000 nM.
Compound O=C(O)Cn1ccc2cc(OCc3cccc(-c4ccc(C(F)(F)F)cc4)c3)ccc21 [Example 52] has an EC50 of 1000 to 10000 nM.
O=C(O)CCn1ccc2cc(OCc3ccccc3)ccc21 [Example 53] was tested, and the EC50 was 1000 to 10000 nM.
O=C(O)c1cc2ccc(OCc3cccc(Oc4ccccc4)c3)cc2oc1=O [Example 54, 7-(3-Phenoxybenzyloxy)-2-oxo-2H-chromene-3-carboxylic acid] showed an EC50 of 1000 to 10000 nM.
Cc1cc(Cl)ccc1-c1cccc(COc2ccc3c(c2)CCC[C@@H]3CC(=O)O)c1 [Example 55] showed an EC50 of 100 to 1000 nM.
Cc1nc(-c2ccc(C(F)(F)F)cc2)sc1COc1ccc2c(c1)CCC[C@@H]2CC(=O)O [Example 56] showed an EC50 of 100 to 1000 nM.
COc1cccc(-c2ccc(COc3ccc4c(c3)CCC[C@H]4CC(=O)O)cc2)c1 [Example 57, (S)-[6-(3′-Methoxy-biphenyl-4-ylmethoxy)-1,2,3,4-tetrahydro-naphthalen-1-yl]-acetic acid] was tested, and the EC50 was 1000 to 10000 nM.
Compound COc1cccc(-c2ccc(COc3ccc4c(c3)CCC[C@@H]4CC(=O)O)cc2)c1 [Example 58, (R)-[6-(3′-Methoxy-biphenyl-4-ylmethoxy)-1,2,3,4-tetrahydro-naphthalen-1-yl]-acetic acid] has an EC50 of 1000 to 10000 nM.
CCOc1ccc(F)c(-c2ccc(COc3ccc4c(c3)CCC[C@H]4CC(=O)O)cc2)c1 [Example 59, (S)-[6-(5′-Ethoxy-2′-fluoro-biphenyl-4-ylmethoxy)-1,2,3,4-tetrahydro-naphthalen-1-yl]-acetic acid] showed an EC50 of 1000 to 10000 nM.
Cc1ccc(-c2nc(C)c(COc3ccc4c(c3)OCC[C@@H](C(=O)O)C4)s2)cc1 [Example 61, 8-((4-Methyl-2-p-tolylthiazol-5-yl)methoxy)-2,3,4,5-tetrahydrobenzo[b]oxepine-4-carboxylic acid] was tested, and the EC50 was 100 to 1000 nM.
Work on O=C(O)[C@@H]1CCOc2cc(OCc3cccc(-c4ccc(C(F)(F)F)cc4)c3)ccc2C1 [Example 63] yielded an EC50 of 1000 to 10000 nM.
Work on Cc1c(Cl)cccc1-c1cccc(COc2ccc3c(c2)OCC[C@@H](C(=O)O)C3)c1 [Example 64] yielded an EC50 of 100 to 1000 nM.
Compound Cc1c(Cl)cccc1-c1cccc(COc2ccc3c(c2)OCC[C@H](C(=O)O)C3)c1 [Example 65] has an EC50 of 1000 to 10000 nM.
